According to ChEMBL document CHEMBL1275573, “Inhibition of herpesvirus replication by hexadecyloxypropyl esters of purine- and pyrimidine-based phosphonomethoxyethyl nucleoside phosphonates” (Antimicrob Agents Chemother, 2008):

Experiments:
[1] = Selectivity index, ratio of EC50 for Epstein-Barr virus P3HR-1 to CC50 for human daudi cell
[2] = test system: MOLT-3; assay: Cytotoxicity against human MOLT3 cell after 4 hrs by MTS assay; type: functional; settings: MOLT-3, 4 h
[3] = Antiviral activity against Epstein-Barr virus p3hr-1 infected in human daudi cells; type: functional, cell-based, Epstein-barr virus strain p3hr-1; settings: human gammaherpesvirus 4, Daudi
[4] = Selectivity index, ratio of EC50 for Human herpesvirus 6B Z29 to CC50 for human MOLT-3 cells
[5] = Cytotoxicity against human HFF cells after 7 days by neutral red dye method; type: cell-based
[6] = Selectivity index, ratio of EC50 for herpes simplex virus type 2 MS to CC50 for human HFF cell
[7] = test system: Human alphaherpesvirus 3; assay: Antiviral activity against Varicella zoster virus Ellen infected in HFF cells by plaque reduction assay; type: functional, organism-based; settings: Human alphaherpesvirus 3, Ellen
[8] = test system: Daudi; assay: Cytotoxicity against human Daudi cell after 4 hrs by MTS assay; type: functional
[9] = Selectivity index, ratio of EC50 for herpes simplex virus type 1 E-377 to CC50 for human HFF cell
[10] = Antiviral activity against Human herpesvirus 6B Z29 infected in human MOLT-3 cells; type: functional, cell-based; settings: Human betaherpesvirus 6B, Z29, MOLT-3
[11] = test system: Human alphaherpesvirus 1; assay: Antiviral activity against herpes simplex virus 1 E-377 infected in HFF cells by plaque reduction assay; type: functional, organism-based; settings: Human alphaherpesvirus 1, E-377, HFF
[12] = Antiviral activity against Human herpesvirus 6A GS infected in human HSB-2 cells; type: functional, cell-based; settings: Human betaherpesvirus 6A, HSB2
[13] = test system: Human alphaherpesvirus 2; assay: Antiviral activity against herpes simplex virus 2 MS infected in HFF cells by plaque reduction assay; type: functional, organism-based; settings: Human alphaherpesvirus 2, MS
[14] = Cytotoxicity against human HFF cells; type: cell-based
[15] = Selectivity index, ratio of EC50 for Murine cytomegalovirus Smith to CC50 for human HFF cell
[16] = test system: Human betaherpesvirus 5; assay: Antiviral activity against Human cytomegalovirus AD169 infected in HFF cells by plaque reduction assay; type: functional, organism-based; settings: Human betaherpesvirus 5, AD169, HFF
[17] = Antiviral activity against Murine cytomegalovirus Smith infected in HFF cells by plaque reduction assay; type: functional, cell-based, Murine cytomegalovirus (strain Smith); settings: Murid betaherpesvirus 1, HFF
[18] = Cytotoxicity against human HSB2 cell after 4 hrs by MTS assay; type: functional; settings: CCRF-HSB-2, 4 h

SMILES	Selectivity Index [1]	CC50 [2] [µM]	EC50 [3] [nM]	Selectivity Index [4]	CC50 at 168 h [5] [µM]	Selectivity Index [6]	EC50 [7] [nM]	CC50 [8] [µM]	Selectivity Index [9]	EC50 [10] [µM]	EC50 [11] [µM]	EC50 [12] [µM]	EC50 [13] [µM]	CC50 [14] [µM]	Selectivity Index [15]	EC50 [16] [µM]	EC50 [17] [nM]	CC50 [18] [µM]	IC50 [12] [µM]
CCCCCCCCCCCCCCCCOCCCOP(=O)(O)COCCn1ccc(N)nc1=O	<2	> 50	> 50000	1	> 300	>9	> 300000	> 100	>1.1	> 50	260	> 50	35	200	<150	> 20	> 20000	> 50	–
CCCCCCCCCCCCCCCCOCCCOP(=O)(O)COCCn1cc(F)c(N)nc1=O	>77	> 50	1300	>1	35	<3	2600	> 100	<3	37	> 12	7.2	> 12	33	440	2	80	22.6	–
Nc1nc(N)c2ncn(CCOCP(=O)(O)O)c2n1 [PMEDAP]	>42	39	1200	1	> 100	>10	2900	> 50	>10	28	> 10	15	> 10	170	>500	13	200	> 56	–
Nc1nc(=O)n(CCOCP(=O)(O)O)cc1F	–	> 50	> 50000	1	–	–	–	–	–	> 50	–	> 50	–	220	2.8	> 20	78000	> 41	–
Nc1ccn(CCOCP(=O)(O)O)c(=O)n1	<2.4	> 50	> 41000	1	> 300	1	> 300000	> 100	1	> 50	> 300	–	> 300	220	>480	> 20	63000	> 50	> 50
CCCCCCCCCCCCCCCCOCCCOP(=O)(O)COCCn1cnc2c(N)nc(N)nc21	>63	51	800	1	120	300	300	> 50	200	34	0.6	2	0.4	170	240	0.5	500	6.4	–
CCCCCCCCCCCCCCCCOCCCOP(=O)(O)COCCn1cnc2c(NC3CC3)nc(N)nc21	>71000	0.3	0.7	6	110	550	30	> 50	1100	0.05	0.1	0.05	0.2	26	>3700	0.02	< 30	0.05	–
CCCCCCCCCCCCCCCCOCCCOP(=O)(O)COCCn1cc(Br)c(N)nc1=O	>3400	> 50	30	1	> 300	>17	42000	> 100	>250	> 45	1.2	38	18	35	>230	4.8	1300	> 41	–
Nc1nc(=O)n(CCOCP(=O)(O)O)cc1Br	1.1	84	24000	<2	> 300	>5	38000	27	>5	> 47	> 60	> 50	> 60	200	<150	> 20	> 20000	3.9	–
Nc1nc(NC2CC2)c2ncn(CCOCP(=O)(O)O)c2n1	200	8.5	100	1	> 100	>13	800	20	>25	6.4	4	1	7.9	150	>1700	0.4	< 60	3	–
